These results are taken from patent US12121521B2, “Uses of salt-inducible kinase (SIK) inhibitors for treating osteoporosis” (The General Hospital Corporation, priority 2016, dated 2024).

Entries after “also recorded” stand apart in the source; their conditions may differ.

For test [1], the target named is T1, ABL1 (Homo sapiens, UniProt P00519).
T1 construct: T7 phage fusion (most kinases) or DNA tag for qPCR (HEK-293-made kinases); purchased DiscoverX (Fremont, CA); host or cells: E. coli BL21-derived host (T7 phage) or HEK-293
Put plainly: ScanEDGE kinase panel (DiscoverX). It counts as binding. Conditions: read-out: % of control activity at 71 nM. As to the method: (§1) ScanEDGE kinase assays paneling specificity across a panel of 96 representative kinases were performed by DiscoverX (Fremont, CA). For most assays, kinase-tagged T7 phage strains were grown in parallel in 24-well blocks in an E. coli host derived from the BL21 strain. Bacteria were grown to log phase and infected with T7 phage from frozen stock (MOI=0.4) and incubated with shaking at 32° C. until lysis (90-150 minutes). The lysates were centrifuged (6000×g) and filtered (0.2 μm) to remove cell debris. The remaining kinases were produced in HEK-293 cells and subsequently tagged with DNA for qPCR detection. […] The liganded beads were blocked with excess biotin and washing with blocking buffer (SeaBlock (Pierce), 1% BSA, 0.05% Tween 20, 1 mM DTT) to remove unbound ligand and to reduce non-specific phage binding. […] Test compounds were prepared as 40× stocks in 100% DMSO and directly diluted into the assay. All reactions were performed in polypropylene 384 well plates in a final volume of 40 μl. […] The kinase concentration in the eluates was measured by qPCR.

Test [2] has as its target T2, ACVR1B (Homo sapiens, UniProt P36896).
T2 construct: T7 phage fusion (most kinases) or DNA tag for qPCR (HEK-293-made kinases); purchased DiscoverX (Fremont, CA); host or cells: E. coli BL21-derived host (T7 phage) or HEK-293
Put plainly: ScanEDGE kinase panel (DiscoverX). It counts as binding. Conditions: read-out: % of control activity at 71 nM. As to the method:
as §1

Test [3] has as its target T3, AMPK-alpha1 (Homo sapiens, UniProt Q13131).
T3 construct: T7 phage fusion (most kinases) or DNA tag for qPCR (HEK-293-made kinases); purchased DiscoverX (Fremont, CA); host or cells: E. coli BL21-derived host (T7 phage) or HEK-293
The experiment in a line: ScanEDGE kinase panel (DiscoverX). It counts as binding. The conditions noted are these: read-out: % of control activity at 71 nM. As for the experimental part: as §1

Test [4] has as its target T4, AXL (Homo sapiens, UniProt P30530).
T4 construct: T7 phage fusion (most kinases) or DNA tag for qPCR (HEK-293-made kinases); purchased DiscoverX (Fremont, CA); host or cells: E. coli BL21-derived host (T7 phage) or HEK-293
Put plainly: ScanEDGE kinase panel (DiscoverX). In kind it is binding. The conditions noted are these: read-out: % of control activity at 71 nM. As to the method: as §1

The target in test [5] is T5, BMPR2 (Homo sapiens, UniProt Q13873).
T5 construct: T7 phage fusion (most kinases) or DNA tag for qPCR (HEK-293-made kinases); purchased DiscoverX (Fremont, CA); host or cells: E. coli BL21-derived host (T7 phage) or HEK-293
The experiment in a line: ScanEDGE kinase panel (DiscoverX). In kind it is binding. Conditions: read-out: % of control activity at 71 nM. As for the experimental part:
as §1

For test [6], the target named is T6, BRAF (Homo sapiens, UniProt P15056).
T6 construct: T7 phage fusion (most kinases) or DNA tag for qPCR (HEK-293-made kinases); purchased DiscoverX (Fremont, CA); host or cells: E. coli BL21-derived host (T7 phage) or HEK-293
The experiment in a line: ScanEDGE kinase panel (DiscoverX). It counts as binding. The conditions noted are these: read-out: % of control activity at 71 nM. As to the method:
as §1

Test [7] deals with T7, CDK2 (Homo sapiens, UniProt P24941).
T7 construct: T7 phage fusion (most kinases) or DNA tag for qPCR (HEK-293-made kinases); purchased DiscoverX (Fremont, CA); host or cells: E. coli BL21-derived host (T7 phage) or HEK-293
The experiment in a line: ScanEDGE kinase panel (DiscoverX). The conditions noted are these: read-out: % of control activity at 71 nM. It counts as binding. As to the method:
as §1

Test [8] addresses T8, CDK9 (Homo sapiens, UniProt P50750).
T8 construct: T7 phage fusion (most kinases) or DNA tag for qPCR (HEK-293-made kinases); purchased DiscoverX (Fremont, CA); host or cells: E. coli BL21-derived host (T7 phage) or HEK-293
Put plainly: ScanEDGE kinase panel (DiscoverX). In kind it is binding. The conditions noted are these: read-out: % of control activity at 71 nM. As for the experimental part: as §1

For test [9], the target named is T9, DCAMKL1 (Homo sapiens, UniProt O15075).
T9 construct: T7 phage fusion (most kinases) or DNA tag for qPCR (HEK-293-made kinases); purchased DiscoverX (Fremont, CA); host or cells: E. coli BL21-derived host (T7 phage) or HEK-293
The experiment in a line: ScanEDGE kinase panel (DiscoverX). In kind it is binding. The conditions noted are these: read-out: % of control activity at 71 nM. As for the experimental part: as §1

Test [10] addresses T10, FLT3 (Homo sapiens, UniProt P36888).
T10 construct: T7 phage fusion (most kinases) or DNA tag for qPCR (HEK-293-made kinases); purchased DiscoverX; host or cells: E. coli BL21-derived host (T7 phage) or HEK-293
The experiment in a line: ScanEDGE kinase panel (DiscoverX). It counts as binding. The conditions noted are these: read-out: % of control activity at 71 nM. As to the method: as §1

In test [11] the target is T11, HCK (Homo sapiens, UniProt P08631).
T11 construct: T7 phage fusion (most kinases) or DNA tag for qPCR (HEK-293-made kinases); purchased DiscoverX; host or cells: E. coli BL21-derived host (T7 phage) or HEK-293
The experiment in a line: ScanEDGE kinase panel (DiscoverX). It counts as binding. The conditions noted are these: read-out: % of control activity at 71 nM. As to the method: as §1

In test [12] the target is T12, LKB1 (Homo sapiens, UniProt Q15831).
T12 construct: T7 phage fusion (most kinases) or DNA tag for qPCR (HEK-293-made kinases); purchased DiscoverX; host or cells: E. coli BL21-derived host (T7 phage) or HEK-293
The experiment in a line: ScanEDGE kinase panel (DiscoverX). It counts as binding. Conditions: read-out: % of control activity at 71 nM. As to the method:
as §1

In test [13] the target is T13, MAPKAPK2 (Homo sapiens, UniProt P49137).
T13 construct: T7 phage fusion (most kinases) or DNA tag for qPCR (HEK-293-made kinases); purchased DiscoverX; host or cells: E. coli BL21-derived host (T7 phage) or HEK-293
The experiment in a line: ScanEDGE kinase panel (DiscoverX). It counts as binding. The conditions noted are these: read-out: % of control activity at 71 nM. As to the method: as §1

The target of test [14] is T14, MEK1 (Homo sapiens, UniProt Q02750).
T14 construct: T7 phage fusion (most kinases) or DNA tag for qPCR (kinases made in HEK-293); purchased DiscoverX; host or cells: E. coli BL21-derived host (T7 phage) or HEK-293
The experiment in a line: ScanEDGE kinase panel (DiscoverX). In kind it is binding. The conditions noted are these: read-out: % of control activity at 71 nM. As to the method:
as §1

Test [15] addresses T15, MET (Homo sapiens, UniProt P08581).
T15 construct: T7 phage fusion (most kinases) or DNA tag for qPCR (kinases made in HEK-293); purchased DiscoverX; host or cells: E. coli BL21-derived host (T7 phage) or HEK-293
The experiment in a line: ScanEDGE kinase panel (DiscoverX). It counts as binding. The conditions noted are these: read-out: % of control activity at 71 nM. As to the method:
as §1

Test [16] deals with T16, PDPK1 (Homo sapiens, UniProt O15530).
T16 construct: T7 phage fusion (most kinases) or DNA tag for qPCR (kinases made in HEK-293); purchased DiscoverX; host or cells: E. coli BL21-derived host (T7 phage) or HEK-293
The experiment in a line: ScanEDGE kinase panel (DiscoverX). In kind it is binding. Conditions: read-out: % of control activity at 71 nM. As to the method:
as §1

Test [17] concerns the target T17, PKAC-alpha (Homo sapiens, UniProt P17612).
T17 construct: T7 phage fusion (most kinases) or DNA tag for qPCR (kinases made in HEK-293); purchased DiscoverX; host or cells: E. coli BL21-derived host (T7 phage) or HEK-293
The experiment in a line: ScanEDGE kinase panel (DiscoverX). It counts as binding. The conditions noted are these: read-out: % of control activity at 71 nM. As to the method: as §1

Test [18] concerns the target T18, PLK3 (Homo sapiens, UniProt Q9H4B4).
T18 construct: T7 phage fusion (most kinases) or DNA tag for qPCR (kinases made in HEK-293); purchased DiscoverX; host or cells: E. coli BL21-derived host (T7 phage) or HEK-293
The experiment in a line: ScanEDGE kinase panel (DiscoverX). It counts as binding. Conditions: read-out: % of control activity at 71 nM. As to the method: as §1

The target of test [19] is T19, TRKA (Homo sapiens, UniProt P04629).
T19 construct: T7 phage fusion (most kinases) or DNA tag after HEK-293 expression; purchased DiscoverX (Fremont, CA), ScanEDGE; host or cells: T7 phage in E. coli BL21-derived host, or HEK-293
Put plainly: ScanEDGE kinase panel (DiscoverX). It counts as binding. The conditions noted are these: read-out: % of control activity at 71 nM. As to the method: as §1

The target of test [20] is T20, p38-alpha (Homo sapiens, UniProt Q16539).
T20 construct: T7 phage fusion (most kinases) or DNA tag for qPCR (kinases made in HEK-293); purchased DiscoverX; host or cells: E. coli BL21-derived host (T7 phage) or HEK-293
The experiment in a line: ScanEDGE kinase panel (DiscoverX). In kind it is binding. The conditions noted are these: read-out: % of control activity at 71 nM. As to the method:
as §1

For test [21], the system named is Ocy454 cells. Put plainly: Immunoblotting of Ocy454 cell lysates (HDAC4/5, CRTC2, SIK2 phosphorylation and localisation). It counts as cell-based, mouse. The conditions noted are these: 10 uM, 90 minutes, compared to DMSO control; FIGS. 17 to 19. As for the experimental part:
The Ocy454 osteocyte cell line was treated for 90 minutes with the indicated compound at 10 uM dose (FIG. 17). Phospho-HDAC4 S246 levels were monitored by immunoblotting (top band) compared to DMSO control.
For all experiments, a single cell subclone of Ocy454 cells (17, 18) was used. Cells were passages in alpha-MEM supplemented with 10% heat-inactivated fetal bovine serum and 1% antibiotics (penicillin/streptomycin, Fungizone) at 33° C. with 5% CO2. Cells were plated at 50,000 cells/ml and allowed to reach confluency at 33° C. (typically in 2-3 days). At this point, cells were transferred to 37° C. for subsequent analysis. For immunoblotting, cells were always analyzed after culture at 37° C. for 7 days. For gene expression analysis, cells were analyzed after culture at 37° C. for 14 days. Mycoplasma contamination was ruled out by PCR. Cells were routinely assayed for SOST expression at 37° C. and examined for osteocytic morphology. […]
In general terms: A western blot detects proteins with antibodies after separation by electrophoresis.

T9 sequence (O15075 whole entry, the tested form may be a part): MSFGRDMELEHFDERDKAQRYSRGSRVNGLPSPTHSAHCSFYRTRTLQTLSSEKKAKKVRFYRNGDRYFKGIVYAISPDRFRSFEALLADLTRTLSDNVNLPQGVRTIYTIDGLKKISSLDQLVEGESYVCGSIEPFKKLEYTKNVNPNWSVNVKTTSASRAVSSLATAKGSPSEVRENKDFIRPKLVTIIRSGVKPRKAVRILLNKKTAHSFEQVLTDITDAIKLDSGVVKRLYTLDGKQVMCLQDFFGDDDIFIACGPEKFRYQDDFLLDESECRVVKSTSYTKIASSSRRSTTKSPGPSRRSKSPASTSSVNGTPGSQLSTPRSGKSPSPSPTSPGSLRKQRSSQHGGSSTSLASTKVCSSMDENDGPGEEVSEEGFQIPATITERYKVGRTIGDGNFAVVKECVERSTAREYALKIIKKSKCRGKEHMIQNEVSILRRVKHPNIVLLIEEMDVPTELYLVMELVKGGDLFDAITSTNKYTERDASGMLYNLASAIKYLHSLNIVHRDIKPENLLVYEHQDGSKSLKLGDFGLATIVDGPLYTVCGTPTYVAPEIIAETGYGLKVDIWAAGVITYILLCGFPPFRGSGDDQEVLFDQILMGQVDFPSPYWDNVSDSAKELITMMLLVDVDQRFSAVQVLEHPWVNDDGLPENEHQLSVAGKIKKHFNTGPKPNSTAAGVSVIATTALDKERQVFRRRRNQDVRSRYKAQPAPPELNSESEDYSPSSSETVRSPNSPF
T5 sequence (Q13873 27-1038): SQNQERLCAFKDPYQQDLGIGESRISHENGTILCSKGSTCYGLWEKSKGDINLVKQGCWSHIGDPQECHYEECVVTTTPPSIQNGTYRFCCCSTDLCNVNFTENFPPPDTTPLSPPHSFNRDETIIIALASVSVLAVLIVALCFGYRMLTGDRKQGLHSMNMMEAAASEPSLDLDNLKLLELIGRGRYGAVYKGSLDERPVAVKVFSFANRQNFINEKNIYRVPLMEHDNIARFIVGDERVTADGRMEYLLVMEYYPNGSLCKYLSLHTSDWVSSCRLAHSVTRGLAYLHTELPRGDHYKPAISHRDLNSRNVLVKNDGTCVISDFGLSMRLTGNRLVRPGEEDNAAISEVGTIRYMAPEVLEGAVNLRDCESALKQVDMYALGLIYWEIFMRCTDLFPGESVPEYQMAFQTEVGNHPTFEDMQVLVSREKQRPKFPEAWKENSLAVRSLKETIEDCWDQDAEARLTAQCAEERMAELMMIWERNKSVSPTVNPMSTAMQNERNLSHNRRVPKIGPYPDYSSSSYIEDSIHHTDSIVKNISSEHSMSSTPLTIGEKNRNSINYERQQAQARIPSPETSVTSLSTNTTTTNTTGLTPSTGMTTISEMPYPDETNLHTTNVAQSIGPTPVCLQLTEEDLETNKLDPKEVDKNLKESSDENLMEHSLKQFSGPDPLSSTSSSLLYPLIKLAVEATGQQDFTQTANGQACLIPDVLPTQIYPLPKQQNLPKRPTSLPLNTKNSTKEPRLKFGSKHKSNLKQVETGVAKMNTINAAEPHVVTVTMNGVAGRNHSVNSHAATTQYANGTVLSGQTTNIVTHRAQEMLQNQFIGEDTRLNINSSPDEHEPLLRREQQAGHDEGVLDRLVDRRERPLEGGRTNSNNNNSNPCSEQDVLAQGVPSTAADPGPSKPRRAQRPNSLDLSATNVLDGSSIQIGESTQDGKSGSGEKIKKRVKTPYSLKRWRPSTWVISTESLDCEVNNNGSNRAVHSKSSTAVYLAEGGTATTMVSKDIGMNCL
T18 sequence (Q9H4B4 whole entry, the tested form may be a part): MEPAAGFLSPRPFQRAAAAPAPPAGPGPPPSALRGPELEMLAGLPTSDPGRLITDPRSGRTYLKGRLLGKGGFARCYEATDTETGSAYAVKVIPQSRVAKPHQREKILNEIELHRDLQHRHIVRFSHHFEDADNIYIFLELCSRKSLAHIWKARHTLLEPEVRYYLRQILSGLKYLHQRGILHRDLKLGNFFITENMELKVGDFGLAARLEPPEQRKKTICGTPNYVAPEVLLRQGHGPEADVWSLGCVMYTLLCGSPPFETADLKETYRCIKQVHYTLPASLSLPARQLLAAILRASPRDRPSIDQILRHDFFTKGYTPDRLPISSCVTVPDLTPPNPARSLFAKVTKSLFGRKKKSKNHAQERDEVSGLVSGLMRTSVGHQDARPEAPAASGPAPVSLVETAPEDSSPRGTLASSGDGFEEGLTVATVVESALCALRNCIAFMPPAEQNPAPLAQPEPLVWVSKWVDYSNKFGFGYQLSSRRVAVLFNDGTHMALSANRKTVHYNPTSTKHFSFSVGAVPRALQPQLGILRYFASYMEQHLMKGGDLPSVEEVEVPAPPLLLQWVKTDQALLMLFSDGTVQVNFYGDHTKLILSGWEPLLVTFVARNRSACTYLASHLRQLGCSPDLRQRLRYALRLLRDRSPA
T13 sequence (P49137 whole entry, the tested form may be a part): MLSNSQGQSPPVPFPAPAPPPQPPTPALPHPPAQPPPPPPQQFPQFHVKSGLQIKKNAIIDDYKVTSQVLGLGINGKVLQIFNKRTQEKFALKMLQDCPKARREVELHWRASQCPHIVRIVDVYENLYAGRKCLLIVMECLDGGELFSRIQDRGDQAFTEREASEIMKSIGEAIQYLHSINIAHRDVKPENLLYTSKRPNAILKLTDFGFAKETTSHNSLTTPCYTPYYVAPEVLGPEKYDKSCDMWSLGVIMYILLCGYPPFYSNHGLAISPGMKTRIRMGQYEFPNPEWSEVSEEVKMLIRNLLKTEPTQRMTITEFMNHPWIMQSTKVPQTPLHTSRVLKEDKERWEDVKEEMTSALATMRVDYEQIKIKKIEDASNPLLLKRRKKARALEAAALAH
T11 sequence (P08631 whole entry, the tested form may be a part): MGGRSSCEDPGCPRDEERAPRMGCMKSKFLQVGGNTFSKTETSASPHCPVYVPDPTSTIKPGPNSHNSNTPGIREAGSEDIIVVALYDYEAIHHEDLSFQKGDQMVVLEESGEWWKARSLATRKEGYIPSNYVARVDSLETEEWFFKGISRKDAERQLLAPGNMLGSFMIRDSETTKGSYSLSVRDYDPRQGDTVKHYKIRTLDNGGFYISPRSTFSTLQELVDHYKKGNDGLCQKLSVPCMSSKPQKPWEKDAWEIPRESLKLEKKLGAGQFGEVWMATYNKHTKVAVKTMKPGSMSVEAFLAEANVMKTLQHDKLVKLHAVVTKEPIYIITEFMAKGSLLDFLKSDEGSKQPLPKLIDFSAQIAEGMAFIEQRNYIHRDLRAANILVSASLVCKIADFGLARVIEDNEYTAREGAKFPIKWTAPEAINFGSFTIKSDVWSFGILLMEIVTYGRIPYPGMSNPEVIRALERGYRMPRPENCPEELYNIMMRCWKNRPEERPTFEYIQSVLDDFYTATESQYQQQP
T19 sequence (P04629 33-796): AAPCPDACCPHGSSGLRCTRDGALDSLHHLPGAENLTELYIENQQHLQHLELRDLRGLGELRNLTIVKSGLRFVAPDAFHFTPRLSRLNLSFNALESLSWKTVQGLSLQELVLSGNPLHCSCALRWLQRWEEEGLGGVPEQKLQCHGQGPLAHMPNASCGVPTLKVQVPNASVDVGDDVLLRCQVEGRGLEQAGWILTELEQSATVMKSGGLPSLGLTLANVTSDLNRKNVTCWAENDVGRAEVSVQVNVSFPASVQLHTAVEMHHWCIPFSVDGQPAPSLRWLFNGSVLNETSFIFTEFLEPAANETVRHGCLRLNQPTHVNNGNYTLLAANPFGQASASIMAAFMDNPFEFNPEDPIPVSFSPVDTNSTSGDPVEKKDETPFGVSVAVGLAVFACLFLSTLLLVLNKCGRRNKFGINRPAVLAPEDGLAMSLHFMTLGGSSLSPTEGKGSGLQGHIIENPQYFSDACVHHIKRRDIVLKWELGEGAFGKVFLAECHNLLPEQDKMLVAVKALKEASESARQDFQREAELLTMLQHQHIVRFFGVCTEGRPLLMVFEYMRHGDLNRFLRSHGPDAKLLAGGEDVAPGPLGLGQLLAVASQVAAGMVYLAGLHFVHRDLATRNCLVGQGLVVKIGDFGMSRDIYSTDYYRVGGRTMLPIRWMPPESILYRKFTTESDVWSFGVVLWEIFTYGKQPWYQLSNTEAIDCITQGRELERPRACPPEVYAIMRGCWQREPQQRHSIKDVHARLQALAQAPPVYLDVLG
T12 sequence (Q15831 whole entry, the tested form may be a part): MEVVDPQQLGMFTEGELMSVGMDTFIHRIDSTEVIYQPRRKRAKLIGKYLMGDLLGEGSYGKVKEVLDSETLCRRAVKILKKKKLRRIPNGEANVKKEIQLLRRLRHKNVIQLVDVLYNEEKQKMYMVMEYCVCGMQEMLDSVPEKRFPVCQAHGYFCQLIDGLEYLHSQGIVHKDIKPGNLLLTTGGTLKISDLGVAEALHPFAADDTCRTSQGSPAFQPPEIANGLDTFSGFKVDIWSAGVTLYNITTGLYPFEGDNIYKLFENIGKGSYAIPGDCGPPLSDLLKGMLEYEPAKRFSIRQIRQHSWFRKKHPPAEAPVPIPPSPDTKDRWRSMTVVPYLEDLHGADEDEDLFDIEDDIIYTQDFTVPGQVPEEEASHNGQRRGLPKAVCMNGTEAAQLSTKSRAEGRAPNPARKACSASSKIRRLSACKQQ
T20 sequence (Q16539 whole entry, the tested form may be a part): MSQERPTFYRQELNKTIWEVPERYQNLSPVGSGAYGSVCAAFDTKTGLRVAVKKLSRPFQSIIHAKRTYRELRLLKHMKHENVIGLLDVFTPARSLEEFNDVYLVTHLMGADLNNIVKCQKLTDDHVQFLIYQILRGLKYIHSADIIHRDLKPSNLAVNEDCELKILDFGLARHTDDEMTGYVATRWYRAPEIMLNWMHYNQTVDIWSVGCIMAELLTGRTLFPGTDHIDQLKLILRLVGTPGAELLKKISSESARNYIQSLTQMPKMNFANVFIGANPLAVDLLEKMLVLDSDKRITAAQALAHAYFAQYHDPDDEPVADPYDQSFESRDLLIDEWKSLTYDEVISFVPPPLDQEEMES

With `COc1ccc(N2C(=O)N(c3c(C)cccc3C)Cc3cnc(Nc4ccc(C5CCN(C)CC5)c(OC)c4)nc32)c(OC)c1` [YKL-05-093], the remaining binding at 0.071 µM in test [1] is 0.2%; in [2] it was 50%; in test [3], 94%; in test [4], 68%; in test [5] it was 87%; in test [6], 66%. The remaining binding at 0.071 µM in test [7] turned out to be 99%; in [8], 88%; in test [9], 89%; in [10], 20%; in test [11], 1.2%; in test [12], 85%. The remaining binding at 0.071 µM in [13] came to 85%; in test [14], 20%; in test [15], 92%; in [16], 55%; in [17] it was 100%; in [18], 90%. Besides, the remaining binding at 0.071 µM in test [19] is 74%; in [20] it was 0.95%. For the same molecule, in test [21], the “Phospho-HDAC4 S246 levels” value is on record as “showed clear activity with respect to reducing HDAC4 S246 levels; also recorded: most reproducibly led to reduced HDAC4 S246 phosphorylation”.
